Measured values: US11672795B2, “Compositions and methods for treating pulmonary vascular disease” (UNIVERSITY OF PITTSBURGH-OF THE COMMONWEALTH SYSTEM OF …, priority 2016, dated 2023)

Tests used:
PAECs [1] = assay: Apoptosis of PAECs on soft or stiff matrix (caspase 3/7 activity, cleaved caspase-3 staining); format: cell-based, human
Experimental: A-C) PAECs were plated on soft (1 kPa) or stiff (50 kPa) matrix and exposed to indicated treatments. Apoptosis (A-C) and proliferation (B-C) were quantified 48 h after plating. […] In all panels, mean expression in control groups (soft matrix) was assigned a fold change of 1, to which relevant samples were compared. Data are expressed as mean±SD (*P<0.05; ** P<0.01, ***P<0.001).
(§1) After various indicated treatments, cultured cells were fixed with PBS/PFA 4% for 10 min and permeabilized with PBS/Triton 100×0.1% for 10 min. The cells were then incubated with anti-PCNA (#4912; 1/100; Invitrogen), anti-Ki67 (ab15580; 1/200; Abcam), and/or anti-cleaved caspase-3 (1/200; Cell Signaling) at room temperature for 2 hours. Secondary antibodies coupled with Alexa-594 and/or Alexa-488 (Thermo Scientific) were used at 1/500. Nuclei were counterstained with DAPI (Sigma).
Caspase 3/7 activity was quantified using the Caspase-Glo 3/7 Assay (Promega), according to manufacturer's instructions. Briefly, cells were plated on hydrogel of different stiffness and treated as described. Twenty four hours after plating, cells were cultured in the presence or absence of serum for twenty-four hours. Cells were then lysed and 10 μg of total protein were incubated for 1 h with the caspase substrates, and luminescence was quantified by plate reader (SynergyHTX multi-mode reader, Biotek).

PAECs [2] = assay: Proliferation of PAECs (cell count, BrdU pulse, PCNA staining); format: cell-based, human; conditions: PAECs, stiff matrix, 48 h after plating
Experimental: A-C) PAECs were plated on soft (1 kPa) or stiff (50 kPa) matrix and exposed to indicated treatments. Apoptosis (A-C) and proliferation (B-C) were quantified 48 h after plating. […] Apoptosis (as reflected by cleaved caspase-3 staining, CC-3+) was increased by serum starvation in both soft and stiff conditions but was not affected by GLS1 inhibition. In all panels, mean expression in control groups (soft matrix) was assigned a fold change of 1, to which relevant samples were compared. Data are expressed as mean±SD (*P<0.05; ** P<0.01, ***P<0.001).
as §1
After specified pre-treatment or transfection protocols as indicated, PAECs or PASMCs were plated in triplicate in 6 well plates at 30 000 cells per well. After overnight incubation for cells to adhere, 6 wells were counted to determine initial count at time of treatments (glutamate, aspartate, BPTES, DON or C968). After 2 days, 4 days or 6 days, the contents of the wells were trypsinized and counted, and proliferation rate was calculated.
Exponentially growing cells were plated in the indicated matrix for 48 hours.

CN(C)c1ccc(C2Nc3ccc4ccccc4c3C3=C2C(=O)CC(C)(C)C3)cc1Br (stereo not drawn) [C968, 5-(3-Bromo-4-(dimethylamino)phenyl)-2,2-dimethyl-2,3,5,6-tetrahydrobenzo[a]phenanthridin-4(1H)-one]
apoptosis (cleaved caspase-3 staining, CC-3+) (PAECs [1]; serum starvation, soft and stiff conditions): not affected
caspase 3/7 activity (PAECs [1]; soft (1 kPa) or stiff (50 kPa) matrix, 24 h after serum depletion, vs vehicle control): No significant changes
proliferation in stiff matrix (PCNA+) (PAECs [2]): decreased
